Assay results taken from patent US10106558B2, “Azolobenzazine compounds, compositions comprising these compounds and their use for controlling invertebrate pests” (BASF SE, priority 2015, dated 2018).

How the values were obtained:
Format in all cases: in vivo
[1] = test system: Mediterranean fruitfly (Ceratitis capitata); test: Action on Mediterranean fruitfly, eggs on insect diet in microtiter plates; conditions: 120 h, egg and larval mortality visually assessed after 5 days, read-out: mortality in comparison with untreated controls
Procedure, shortened: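 Microtiter plates held insect diet plus 50-80 C. capitata eggs; compounds in 75% water/25% DMSO were sprayed onto the diet at several concentrations, two replicates. Plates were kept at about […] and […] relative humidity for 5 days, then egg and larval mortality was scored visually.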

[2] = test system: tobacco budworm (Heliothis virescens); test: Action on tobacco budworm, eggs on insect diet in 96-well microtiter plates; conditions: 120 h, egg and larval mortality visually assessed after 5 days, read-out: mortality in comparison with untreated controls
Procedure, shortened: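 Compounds in 25% DMSO/water sprayed (10 μl) onto insect diet holding 15–25 H. virescens eggs, two replicates at several concentrations. Held 5 days at about 28±1 °C, 80±5% RH. Egg and larval mortality scored visually.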

[3] = test system: Southern Armyworm (Spodoptera eridania), 2nd instar larvae; test: Action on southern armyworm 2nd instar larvae, sprayed lima bean plants; conditions: 96 h, 4 days after treatment, read-out: mortality in comparison with untreated controls
Procedure, shortened: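 Lima bean plants (Sieva, 1st true leaf) sprayed electrostatically with compound in 50% acetone/water plus 0.01% nonionic surfactant, dried, then infested with 10–11 larvae in bags. Held at about 25 °C, 20–40% RH; mortality and reduced feeding scored 4 days after treatment versus untreated plants.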

Cc1ccc(C(C)C)c(N2C(=O)CS/C2=N\N=C\c2ccc3c(ccc4c3ncn4-c3ccc(OC(F)(F)F)cc3)n2)c1 [Compound C-6, (2Z)-3-(2-isopropyl-5-methyl-phenyl)-2-[(E)-[3-[4-(trifluoromethoxy)phenyl]imidazo[4,5-f]quinolin-7-yl]methylenehydrazono]thiazolidin-4-one]
≥ 75%: mortality at 800 ppm [1] | mortality at 800 ppm [2] | mortality at 500 ppm [3]
